Data from patent US20250381307A1, “RETRO-AAV AND USE IN TREATING NEURODEGENERATIVE DISEASES” (priority 2023, published 2025).

Tests used:
hM3Dq = hM3Dq (Homo sapiens, UniProt P20309, A239G/Y149C); assay: In vivo electrophysiological recording in caudate, hM3Dq macaques, CNO infusion into dorsomedial caudate; set-up: host or cells: AAV8R12-transduced neurons (striatal D1-MSNs, some SNr neurons) of mice and macaques
Procedure: (§1) Electrophysiological recording was performed through a recording chamber while the monkey was anesthetized. Neural responses were recorded by a 16-channel linear probe (Plexon Inc, Uprobe) driven by a mechanical microdrive (Alpha Omega, FlexMT). Signals were passed through a head stage (Plexon Inc, HST/16V-G20 LN) and then split and filtered between 300 Hz and 5 kHz to identify spiking activity with an amplifier system (Plexon Inc, OmniPlex). Detected spikes were then sorted by commercially available software (Plexon Inc, Offline Sorter) for further analysis. To quantify the effect of CNO/DCZ injection, neural activity was recorded for 60 minutes following CNO/DCZ injection. The response time-course for each channel was obtained by counting the spikes within every 10-minute window and then normalizing to the maximal.
(§2) To determine the effect of CNO/DCZ injection on the direction of signal change, we performed Pearson correlation between neural responses and time using the ‘corr’ function in Matlab, which generates the correlation coefficient ‘r’ and significant level ‘p’. A neuron was considered to have “Increased” activity when r>0 and p<0.05; and considered to have “Decreased” activity when r<0 and p<0.05. Otherwise, neurons were considered to be “Unchanged” in their neural activities. The responses of all increased neurons were then averaged after being normalized by the maximal response (Crowe et al., 2014; Dai and Wang, 2018; Hirokawa et al., 2019) following CNO/DCZ injection, and then plotted as a function of time to generate the normalized population response.

rM3Ds = target: T1, rM3Ds (Rattus norvegicus, UniProt P08483, A177S/A238G/A489L/DEL261-437/DEL441-478/E258S/I253V/I483M/INS256[…]/K178L/K182A/K255R/K484R/K486H/L173F/L482A/M480V/R171S/R176Q/R179M/S481M/T174R/T181R/T257A/Y148C); assay: In vivo electrophysiological recording in caudate/putamen, rM3Ds macaques, intramuscular CNO; set-up: rM3Ds; 2A-EYFP (C); host or cells: AAV8R12-transduced striatal D1-MSNs of mice and cynomolgus macaques (in vivo and acute slices)
T1 sequence (P08483 with tags, fused parts or gaps Y148C/R171S/L173F/T174R/R176Q/A177S/K178L/R179M/T181R/K182A/A238G/I253V/K255R/INS256[…]/T257A/E258S/DEL261-437/DEL441-478/M480V/S481M/L482A/I483M/K484R/K486H/A489L): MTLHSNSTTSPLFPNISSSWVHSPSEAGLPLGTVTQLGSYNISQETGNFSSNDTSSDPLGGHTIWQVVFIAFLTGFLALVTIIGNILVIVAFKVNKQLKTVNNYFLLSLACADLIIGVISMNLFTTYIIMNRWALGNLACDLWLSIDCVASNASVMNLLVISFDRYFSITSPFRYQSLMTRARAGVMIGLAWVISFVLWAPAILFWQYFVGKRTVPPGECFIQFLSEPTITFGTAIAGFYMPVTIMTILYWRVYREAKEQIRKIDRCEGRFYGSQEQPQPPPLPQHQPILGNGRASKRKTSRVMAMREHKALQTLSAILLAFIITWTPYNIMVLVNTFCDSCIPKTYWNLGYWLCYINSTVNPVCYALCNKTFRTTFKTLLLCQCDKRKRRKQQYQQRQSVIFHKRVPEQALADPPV
Procedure: as §1, §2
To enable in-vivo verification of the strategy via an opto-tagging approach, AAV virus encoding opsin ChR2 (AAV9-EF1α-DIO-ChR2-EYFP) was injected into the striatum with simultaneous nigral infusion of a retrograde AAV encoding Cre and rM3Ds (AAV8R12-G88P7-HA-rM3Ds-2A-Cre). A total volume of 27 μl (3 μl×9 sites) and 30 μl (3 μl×10 sites) were injected in the SNr and the striatum, respectively. A recording chamber was implanted above the striatum to allow optical stimulation and electrophysiological recording.
Optogenetic verification was conducted six weeks after virus injections. A 16-channel linear probe with an embedded optic fiber (Plexon Inc., Uprobe) was used to deliver light stimulation and record neural responses. A mechanical Microdrive (FlexMT, Alpha Omega, Nazareth, Israel) was used to mount and drive the probe. A blue laser (473 nm, Changchun New Industries Tech, MBL-III-473) was used to generate light stimulation, which was controlled by a DAQ board (National Instruments, PCIe-6321) through the MonkeyLogic toolbox (NIMH version).
Light pulses of 40 Hz that last for 500 ms were used to probe neurons' responses to optical stimulation. […] Responses from these optically identified cells were grouped to generate the normalized population response as a function of time.

Sequence of hM3Dq (P20309 whole entry Y149C/A239G, the tested form may be a part): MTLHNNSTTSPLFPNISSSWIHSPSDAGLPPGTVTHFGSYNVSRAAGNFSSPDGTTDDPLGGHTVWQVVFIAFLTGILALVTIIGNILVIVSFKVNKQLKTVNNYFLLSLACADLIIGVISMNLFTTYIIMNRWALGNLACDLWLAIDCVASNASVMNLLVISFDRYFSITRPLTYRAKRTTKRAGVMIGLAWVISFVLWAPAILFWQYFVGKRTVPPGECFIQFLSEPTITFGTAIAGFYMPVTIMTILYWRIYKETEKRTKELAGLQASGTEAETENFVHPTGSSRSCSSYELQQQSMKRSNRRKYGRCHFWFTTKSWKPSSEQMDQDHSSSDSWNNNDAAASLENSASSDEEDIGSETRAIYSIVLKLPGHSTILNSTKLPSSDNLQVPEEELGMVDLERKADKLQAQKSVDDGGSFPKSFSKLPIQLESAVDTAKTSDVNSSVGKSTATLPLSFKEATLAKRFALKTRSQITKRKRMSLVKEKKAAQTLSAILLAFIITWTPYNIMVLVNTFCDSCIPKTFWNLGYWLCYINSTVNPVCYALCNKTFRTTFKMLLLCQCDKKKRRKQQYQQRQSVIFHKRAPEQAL

## C[N+]1([O-])CCN(C2=Nc3cc(Cl)ccc3Nc3ccccc32)CC1 [CNO, clozapine N-oxide]
hM3Dq; 34 total cells, saline 18.8%
  caudate cells activated (FIG. 12L): 67.6%
hM3Dq; 34 total cells, saline 40.6%
  caudate cells inactivated (FIG. 12L): 2.9%
  caudate cells unchanged (FIG. 12L): 29.4%
hM3Dq; monkey CM045, 34 cells
  caudate cells activated (FIG. 12C): 70.6%
  caudate cells inactivated (FIG. 12C): 8.8%
  caudate cells unchanged (FIG. 12C): 20.6%
rM3Ds; 38 total cells, saline 20%
  caudate/putamen cells activated (FIG. 12N): 50%
rM3Ds; 38 total cells, saline 26.7%
  caudate/putamen cells unchanged (FIG. 12N): 36.8%
rM3Ds; 38 total cells, saline 53.3%
  caudate/putamen cells inactivated (FIG. 12N): 13.2%
rM3Ds; AAV8R12-G88P7-HA-rM3Ds-2A-Cre plus AAV9-EF1α-DIO-ChR2-EYFP, anesthetized macaques
  neuronal activity of opto-tagged retrogradely labeled D1-MSNs: effectively induced an increase of neuronal activity
rM3Ds; monkey CM048, 38 cells
  caudate cells activated (FIG. 12F): 65.8%
  caudate cells inactivated (FIG. 12F): 7.9%
  caudate cells unchanged (FIG. 12F): 26.3%
